In article PMC8400955 (Pharmaceuticals, 2021):
Read-outs that look alike come from different tables or passages of the source.

How the values were obtained:
[1] = Bidirectional permeability across Caco-2 cell monolayers; assay type: in vitro ADME; details: human; for recovery at 120 min, 5 μM: Caco-2, Caco-2, 5 μM; for Papp A→B at 120 min, 5 μM / Papp B→A at 120 min, 5 μM / efflux ratio at 120 min, 5 μM: Caco-2, 5 μM
Method: The bidirectional permeability and absorption mechanism of ZB716 was evaluated across Caco-2 cell monolayers.
The apical-to-basolateral (A–B) and basolateral-to-apical (B–A) transport of ZB716 in HBSS (25 mM HEPES) with 1% BSA was measured across Caco-2 cell monolayers. […] All incubations were performed in triplicate, and the integrity of the cell monolayers was confirmed using the marker Lucifer yellow.
The slope, k, was determined by linear
using the following equation: […]
1.4 Intestinal Mucosal Permeation of ZB716
Papp= VAArea х timeх ሾdrugሿreceiverሾdrugሿinitial,donor

CYP2B6 = assay: CYP induction (enzyme activity) in cryopreserved human hepatocytes, CYP2B6; details: for Percent of Control / fold induction at 72 h, 30 µM: 30 µM; for fold induction at 72 h, 30 µM / fold induction at 72 h, 1000 µM: human, plated cryopreserved human hepatocytes
Method: (§1) The UPLC–MS/MS (SHIMADZU, LC-30AD) equipped with waters Xselect®HSS T3 2.5 μm (2.1 × 50 mm) was used to detect the marker metabolites in the enzyme activity assay. The fold-induction enzyme activity was determined using the ratio calculation (the calculation details are available in the Supplementary Materials).
(§2) CYP activity was expressed as pmol/min/million cells where pmol was defined as the amount of metabolite formed during the reaction. […] The fold-induction enzyme activity was determined by the ratio:
(§3) Fold of induction = CYP activity(induced) / CYP activity(vehicle)
(§4) % of positive control = (𝑪𝒀𝑷 𝒂𝒄𝒕𝒊𝒗𝒊𝒕𝒚(𝒊𝒏𝒅𝒖𝒄𝒆𝒅)ି 𝑪𝒀𝑷 𝒂𝒄𝒕𝒊𝒗𝒊𝒕𝒚(𝑫𝑴𝑺𝑶))(𝑪𝒀𝑷 𝒂𝒄𝒕𝒊𝒗𝒊𝒕𝒚(𝒑𝒐𝒔𝒊𝒕𝒊𝒗𝒆 𝒄𝒐𝒏𝒕𝒓𝒐𝒍)ି 𝑪𝒀𝑷 𝒂𝒄𝒕𝒊𝒗𝒊𝒕𝒚(𝑫𝑴𝑺𝑶))х 𝟏𝟎𝟎 Based on the enzyme activity, a minimum of 2-fold increase of a response compared to vehicle control and ≥ 20% of the positive control was considered as the cutoff for a positive signal in in vitro induction

CYP3A4 = assay: CYP induction (enzyme activity) in cryopreserved human hepatocytes, CYP3A4; assay type: in vitro ADME; details: 30 µM; for fold induction at 72 h, 30 µM: human, plated cryopreserved human hepatocytes
CYP1A2 = assay: CYP induction (enzyme activity) in cryopreserved human hepatocytes, CYP1A2; details: for Percent of Control / fold induction at 72 h, 30 µM: 30 µM; for fold induction at 72 h, 30 µM / fold induction at 72 h, 50 µM: human, plated cryopreserved human hepatocytes
Method: as §1, §2, §3, §4

SMILES: C[C@H]1O[C@@H](O[C@H]2[C@@H](O)C[C@H](O[C@H]3[C@@H](O)C[C@H](O[C@H]4CC[C@@]5(C)[C@H](CC[C@@H]6[C@@H]5C[C@@H](O)[C@]5(C)[C@@H](C7=CC(=O)OC7)CC[C@]65O)C4)O[C@@H]3C)O[C@@H]2C)C[C@H](O)[C@@H]1O [Digoxin, digoxin, reference compound]
- recovery at 120 min, 5 μM ([1]; read-out: Recovery A to B): 92.4 ± 1%
- recovery at 120 min, 5 μM ([1]; read-out: Recovery B to A): 86 ± 6%
- Papp A→B at 120 min, 5 μM [1]: 0.687 ± 0.088 ×10⁻⁶ cm/s
- Papp B→A at 120 min, 5 μM [1]: 14.5 ± 1.68 ×10⁻⁶ cm/s
- efflux ratio at 120 min, 5 μM [1]: 21.2 ± 2

SMILES: CCOC(=O)c1ncn2c1CN(C)C(=O)c1cc(F)ccc1-2 [Flumazenil, flumazenil, reference compound]
- Percent of Control (CYP2B6; donor one): 3.77%
- Percent of Control (CYP2B6; donor three): 5.23%
- Percent of Control (CYP2B6; donor two): −3.61%
- fold induction at 72 h, 30 µM (CYP2B6; donor one): 1.17 ± 0.04
- fold induction at 72 h, 30 µM (CYP2B6; donor three): 1.28 ± 0.2
- fold induction at 72 h, 30 µM (CYP2B6; donor two): 0.789 ± 0.07
- Percent of Control (CYP3A4; donor one): 1.16%
- Percent of Control (CYP3A4; donor three): 3.11%
- Percent of Control (CYP3A4; donor two): 4.37%
- fold induction at 72 h, 30 µM (CYP3A4; donor one): 1.06 ± 0.09
- fold induction at 72 h, 30 µM (CYP3A4; donor three): 1.23 ± 0.09
- fold induction at 72 h, 30 µM (CYP3A4; donor two): 1.39 ± 0.04
- Percent of Control (CYP1A2; donor one): −2.20%
- Percent of Control (CYP1A2; donor three): −3.60%
- Percent of Control (CYP1A2; donor two): 0.450%
- fold induction at 72 h, 30 µM (CYP1A2; donor one): 0.818 ± 0.032
- fold induction at 72 h, 30 µM (CYP1A2; donor three): 0.807 ± 0.177
- fold induction at 72 h, 30 µM (CYP1A2; donor two): 1.06 ± 0.11

SMILES: Nc1cc(N2CCCCC2)nc(N)[n+]1[O-] [Minoxidil, minoxidil, reference compound]
- recovery at 120 min, 5 μM ([1]; read-out: Recovery A to B): 91 ± 1.4%
- recovery at 120 min, 5 μM ([1]; read-out: Recovery B to A): 94.4 ± 48%
- Papp A→B at 120 min, 5 μM [1]: 6.47 ± 0.22 ×10⁻⁶ cm/s
- Papp B→A at 120 min, 5 μM [1]: 7.44 ± 0.47 ×10⁻⁶ cm/s
- efflux ratio at 120 min, 5 μM [1]: 1.15 ± 0.09

SMILES: COc1ccc2[nH]c([S+]([O-])Cc3ncc(C)c(OC)c3C)nc2c1 (stereo not shown) [Omeprazole, omeprazole, reference compound]
- fold induction at 72 h, 50 µM (CYP1A2; donor one): 9.28 ± 0.223
- fold induction at 72 h, 50 µM (CYP1A2; donor three): 6.37 ± 0.14
- fold induction at 72 h, 50 µM (CYP1A2; donor two): 15 ± 1.8

SMILES: CCC1(c2ccccc2)C(=O)NC(=O)NC1=O [Phenobarbital, phenobarbital, reference compound]
- fold induction at 72 h, 1000 µM (CYP2B6; donor one): 5.44 ± 0.13
- fold induction at 72 h, 1000 µM (CYP2B6; donor three): 6.29 ± 0.9
- fold induction at 72 h, 1000 µM (CYP2B6; donor two): 6.86 ± 0.36
